The values below come from patent US20130131065A1, “TREATMENT OF TYPE 2 DIABETES” (priority 2010, published 2013).

This assay has as its system Rat pancreatic islets. Briefly: Apoptosis (cytoplasmic nucleosomes, Cell Death Detection ELISA) in cultured rat pancreatic islets with or without cytokine cocktail. Type of assay: cell-based. The protocol:
Male Wistar rat islets (Elevage Janvier, Le Genest-St-Isle, France) were isolated using collagenase (Serva, Heidelberg, Germany) and cultured in RPMI at 11 mM glucose (Invitrogen, CA, USA) supplemented with 10% FCS (Fetal Calf Serum), 100 Units/ml penicillin, 100 μg/ml streptomycin and 100 μg/ml gentamycin in low-attachment 24-well plates (Corning, N.Y., USA). These islets were incubated with a cocktail of rat cytokines (TNF-alpha, IL-1beta and INF-gamma each at 2 ng/ml) for 24 hours (Brun T. et al., 2004 and 2007). […] Aliquots of the medium were used to measure insulin accumulated during the culture period using immune enzyme assay kits (Brunchwig, Basel, Switzerland). Furthermore, quantification of cytoplasmic nucleosomes, a direct indicator of apoptosis, was performed with the Cell Death Detection ELISA kit (Roche, Basel, Switzerland). Each condition was tested with 50 rat islets in duplicate and four independent experiments were performed. The results are provided as mean+/−sem and statistical analyses were performed using one-way ANOVA with Bonferroni and Dunnett post-hoc tests.
The conditions without cytokines allowed the analysis of the specific effect of the compound on islets while the combination of the drug with cytokines allowed the study of the effect of Imeglimin on islets under an inflammatory stress. To measure cell death in islets, quantification of cytoplasmic nucleosomes in islet cells, a consequence of DNA fragmentation during apoptosis (Robertson et al., 2000), was performed. […] Furthermore, a negative control and a positive control were added to the conditions with and without cytokines to test the effectiveness of the protocol. […] The results of the quantification of cell death for each condition are presented on FIG. 1.
(In general: An ELISA detects its analyte on a solid surface through an enzyme-linked reagent.)

Setting [1] is: with cytokines (TNF-alpha, IL-1beta, INF-gamma each 2 ng/ml, 24 hours), compound at 100 μM.
[2] abbreviates: with cytokines (each 2 ng/ml, 24 hours), compound at 1 mM.
[3] abbreviates: with cytokines (each 2 ng/ml, 24 hours), Exendin-4 at 10 nM.

In the case of `CC1N=C(N)NC(N(C)C)=N1.Cl` (single isomer, unassigned; (+)) [(+)-2-amino-3,6-dihydro-4-dimethylamino-6-methyl-1,3,5-triazine hydrochloride], for the setting “both doses (100 μM and 1 mM), cytokines each 2 ng/ml, 24 hours”, the “protection of the islets from the cytokine stress” value was “completely protected”. For the same compound, under setting [1], the “less apoptosis than cytokine-stressed islets” value was 37% and the “less apoptosis than untreated islets” value is listed as 29%. For the same compound, under setting [2], the “protection: less apoptosis than cytokine-stressed islets” value is 25% and the “protection: less apoptosis than untreated islets” value is given as 16%. The “more potent than Exendin-4 (protective effect)” value (with cytokines, lower concentration tested (100 μM) vs Exendin-4 at 10 nM) is roughly 50%. The “level of protection relative to the Exendin-4 level” value (without cytokines, compound at 100 μM vs Exendin-4 at 10 nM) is on record as “two thirds”. Further, under “without cytokines, compound at 100 μM, 24 hours”, the “less apoptosis than untreated islets” value is reported as 10%.

Exendin-4 [reference compound]: under setting [3], the “drop in apoptosis vs cytokine-stressed islets” value was 29% and the “drop in apoptosis vs untreated islets” value turned out to be 20%. In addition, for the setting “without cytokines, Exendin-4 at 10 nM, 24 hours”, the “decrease in cell death (vs untreated islets)” value came to 16%.
